Test results from patent US11744837B2, “Use of cortisol in assessment and prophylactic treatment of hypokalemia associated with glucocorticoid receptor modulator treatment of Cushing's syndrome patients” (Corcept Therapeutics, Inc., priority 2018, dated 2023).
Like-named read-outs stand apart in the source and are kept apart here.

Assays:
[1] = tested on: subjects in an Alzheimer's study; assay: Alzheimer's study: hypokalemia; format: in vivo, human
Description: (§1) Clinically meaningful hypokalemia (<3.1) has been reported in 16 of 821 (1.9%) mifepristone treated subjects (12 in completed double blind PMD trials, and 4 in a completed Alzheimer's trial), and in 5 of 626 (0.8%) placebo treated subjects in completed PMD trials.

[2] = tested on: psychotic major depression (PMD) subjects; assay: Double blind psychotic major depression (PMD) trials: hypokalemia; format: in vivo, human; conditions: completed double blind PMD trials
Description: as §1

[3] = tested on: Cushing's syndrome patients; conditions: cited from earlier work
[4] = tested on: cortisol; assay: 24-hour urine cortisol during mifepristone treatment of Cushing's syndrome patients; format: in vivo, human
Description: (§2) Dosing Schedule Dosing was started with 300 mg of mifepristone once per day for 14 days. After 14 days, if no clinical improvement was seen but the drug was well tolerated, the dose of mifepristone was increased to 600 mg once per day. After 4 weeks of dosing at 600 mg once per day, if no clinical improvement was seen but the drug was well tolerated, the dose was increased to 900 mg once per day. Dose escalation was based on weight with the maximum dose no higher than 20 mg/kg/day. […] After 4 weeks of dosing at 900 mg once per day, if no clinical improvement was seen but the drug was well tolerated, the dose was increased to 1200 mg once per day. Study duration was 24 weeks.
(§3) Potassium levels were obtained on every subject at either screening or the pre-drug administration baseline visit, and then also at every scheduled post-baseline visit. Potassium levels post-baseline were therefore obtained as early as day 7 and through day 210 (week 30 was the last visit and was the 6 week follow-up visit). ACTH, and cortisol were measured at six visits (week 2 (day 14), week 6 (day 42), week 10 (day 70), week 16 (day 112), and week 24 (day 168) week 6 follow-up (day 210)).

[5] = tested on: ACTH; assay: ACTH levels during mifepristone treatment of Cushing's syndrome patients; format: in vivo, human
Description: (§4) The term “measuring the level,” in the context of cortisol, ACTH, mifepristone, or other compounds, refers to determining, detecting, or quantitating the amount, level, or concentration of, for example, cortisol, ACTH, mifepristone, or other compound in a sample obtained from a subject. Plasma or serum samples are often used for measuring ACTH or cortisol level.
(§5) The types of samples that are suitable for ACTH determination can be serum, plasma, saliva, urine, or any other biological fluid taken from a subject. In preferred embodiments, the sample is a serum sample, or is a plasma sample. The level of ACTH can be measured using various methods, including but not limited to, immunoassays, e.g., competitive immunoassay, radioimmunoassay (MA), immunofluorometric enzyme assay, and ELISA; competitive protein-binding assays; liquid chromatography (e.g., HPLC); and mass spectrometry, e.g., high-performance liquid chromatography/triple quadrupole-mass spectrometry (LC-MS/MS). Commercial kits for measuring ACTH are readily available, e.g., from Mayo clinic (Test ID: ACTH), Siemens Healthcare Global (Immulite® 2000 ACTH assay), and Roche Molecular Diagnostics (Catalog No. 03255751190). In preferred embodiments, ACTH levels are measured using a radioimmunoassay (RIA), most preferable a two-site MA, such as performed by Quest Diagnostics (Secaucus, N.J. 07094).
as §2, §3

[6] = tested on: cortisol; assay: Total serum cortisol during mifepristone treatment of Cushing's syndrome patients; format: in vivo, human
Description: as §4
as §5, with “cortisol” for “ACTH”, “(LC-MS/MS).” for “(LC-MS/MS). Commercial kits for measuring ACTH are readily available, e.g., from Mayo clinic (Test ID: ACTH), Siemens Healthcare Global (Immulite® 2000 ACTH assay), and Roche Molecular Diagnostics (Catalog No. 03255751190).”, “LC-MS/MS,” for “a radioimmunoassay (RIA), most preferable a two-site MA,”
Dosing Schedule Dosing was started with 300 mg of mifepristone once per day for 14 days. After 14 days, if no clinical improvement was seen but the drug was well tolerated, the dose of mifepristone was increased to 600 mg once per day. After 4 weeks of dosing at 600 mg once per day, if no clinical improvement was seen but the drug was well tolerated, the dose was increased to 900 mg once per day. Dose escalation was based on weight with the maximum dose no higher than 20 mg/kg/day. […]
as §3, with “Potassium levels post-baseline were therefore obtained as early as day 7 and through day 210 (week 30 was the last visit and was the 6 week follow-up visit).” left out

[7] = tested on: healthy volunteers; assay: Previous clinical studies in healthy volunteers: adverse events; format: in vivo, human
Description: Hypokalemia and rash appear to be more common in subjects receiving mifepristone than in the control groups.

[8] = tested on: Cushing's syndrome patients; conditions: in vivo
Description: The risk of experiencing at least one episode of hypokalemia (potassium level <3.5 mEq/L) after 7 to 14 Days of exposure to KORLYM (mifepristone) was evaluated using stepwise multivariable logistic regression and single-variable logistic regression models. The following independent factors were evaluated for potential association with hypokalemia based on the biology of the disease: total cortisol at Day 1, ACTH at Day 1, and potassium level at Day 1.
The risk of experiencing at least one episode of hypokalemia (potassium level <3.5 mmol/L) after 28 Days of exposure to KORLYM was evaluated using stepwise multivariable logistic regression and single-variable logistic regression models. The following independent factors were evaluated for potential association with hypokalemia based on the biology of the disease: total cortisol at Day 1 and Day 14 (cort_01 and cort_14), ACTH at Day 1 and Day 14 (ACTH_01 and ACTH_14), and potassium levels at Day 1 and Day 14 (K_01 and K_14).
Patients were defined to have severe/recurrent hypokalemia for this analysis if they had at least one value of potassium of 2.5 mmol/L or lower, or if they had recurrent hypokalemia (hypokalemia occurring during multiple visits after Day 14 visit).
The Cushing's syndrome study reported herein was conducted in accordance with the Declaration of Helsinki and Good Clinical Practice (GCP) according to International Conference on Harmonization (ICH) guidelines.
as §2
Serum electrolytes, including potassium, were measured regularly throughout the study period.
as §3

[9] = tested on: mifepristone treated subjects (PMD and Alzheimer's trials); assay: Completed PMD and Alzheimer's trials together: clinically meaningful hypokalemia; format: in vivo, human; conditions: 16 of 821 mifepristone treated subjects
Description: as §1

[10] = patients who did not experience hypokalemia
[11] = 43 subjects with Cushing's disease

subjects with clinically meaningful hypokalemia (<3.1) ([1]; completed Alzheimer's trial): 4
subjects with hypokalemia in the range of 2.8 to 3.5 mEq/L ([1]; out of 33 subjects, 300 mg per day of mifepristone for 16 weeks): 9
subjects with clinically meaningful hypokalemia (<3.1) [2]: 12
Severe/Recurrent Hypokalemia ([8]; both, human): 9 (20.0) n (%)
developed hypokalemia on or after Day 28 ([8]; both, human): 6.7%
developed severe/recurrent hypokalemia on or after Day 28 ([8]; both, human): 6.7%
subjects with a Potassium value ≤3.5 mmol/L at any of the six visits ([8]; both, human): 21
subjects with a Potassium value ≤3.5 mmol/L at any post-baseline visit ([8]; both, human): 23
Number with Hypokalemia (%) (Potassium ≤ 3.4 mEq/L) ([8]; both, human, 6 weeks): 7 (14%)
Number with Hypokalemia (%) (Potassium ≤ 3.4 mEq/L) ([8]; both, human, 8 weeks): 4 (8%)
Number with Hypokalemia (%) (Potassium ≤ 3.4 mEq/L) ([8]; both, human, 10 weeks): 4 (8%)
Number with Hypokalemia (%) (Potassium ≤ 3.4 mEq/L) ([8]; both, human, 12 weeks): 3 (6%)
Number with Severe Hypokalemia (%) (Potassium ≤ 2.5 mEq/L) ([8]; both, human, 12 weeks): 1 (2%)
Number with Hypokalemia (%) (Potassium ≤ 3.4 mEq/L) ([8]; both, human, 16 weeks): 5 (10%)
Number with Severe Hypokalemia (%) (Potassium ≤ 2.5 mEq/L) ([8]; both, human, 16 weeks): 1 (2%)
Number with Hypokalemia (%) (Potassium ≤ 3.4 mEq/L) ([8]; both, human, 20 weeks): 1 (2%)
Decreased potassium observed during at least one visit ([8]; both, human, 24 weeks): about 30%
Number with Hypokalemia (%) (Potassium ≤ 3.4 mEq/L) ([8]; both, human, 24 weeks): 4 (8%)
developed hypokalemia after dosing with KORLYM ([8]; both, human, 24 weeks): 42.9%
Number with Hypokalemia (%) (Potassium ≤ 3.4 mEq/L) ([8]; both, human, 30 weeks): 3 (6%)
Number with Severe Hypokalemia (%) (Potassium ≤ 2.5 mEq/L) ([8]; both, human, 30 weeks): 1 (2%)
Number with Hypokalemia (%) (Potassium ≤ 3.4 mEq/L) ([8]; both, human, 1 day): 2 (4%)
Number with Hypokalemia (%) (Potassium ≤ 3.4 mEq/L) ([8]; both, human, 7 day): 2 (4%)
Number with Hypokalemia (%) (Potassium ≤ 3.4 mEq/L) ([8]; both, human, 14 day): 8 (16%)
Number with Severe Hypokalemia (%) (Potassium ≤ 2.5 mEq/L) ([8]; both, human, 14 day): 1 (2%)
share of subjects with a Potassium value ≤3.5 mmol/L as early as day 14, all post-baseline values ([8]; both, human, 14 days): 48%
share of those subjects with a Potassium value ≤3.5 mmol/L as early as day 14 ([8]; both, human, 14 days): 38%
Number with Hypokalemia (%) (Potassium ≤ 3.4 mEq/L) ([8]; both, human, 28 day): 10 (20%)
Number of Subjects Hypokalemic <=3.5 mmol/L ([8]; both, human, 210 day): 3
Number of Subjects Non-Hypokalemic >3.5 mmol/L ([8]; both, human, 210 day): 37
patients with at least one potassium value of 2.5 mmol/L or lower [8]: two
severity of hypokalemia [8]: generally mild to moderate
subjects with a day 7 Potassium value ≤3.5 mmol/L [8]: three
Clinically meaningful hypokalemia (<3.1) [9]: 1.9%
SMILES: CC#C[C@]1(O)CC[C@H]2[C@@H]3CCC4=CC(=O)CCC4=C3[C@@H](c3ccc(N(C)C)cc3)C[C@@]21C [mifepristone, 11β-(4-dimethylaminophenyl)-17β-hydroxy-17α-(1-propynyl)-estra-4,9-dien-3-one]
patients with serum potassium levels less than 3.5 mEq/L ([3]; of 43 Cushing's syndrome patients treated with mifepristone): 22
patients with serum potassium levels less than 2.5 mEq/L (severe hypokalemia) ([3]; of the 22 of 43 patients with potassium <3.5 mEq/L): 3
24 Hour Urine Cortisol (nmol/24 hr)/ACTH Ratio Visit Values, Mean ± SD ([4]; Day 42, Non-Hypokalemic (N 35)): 7.9 ± 6.0 (35)
24 Hour Urine Cortisol (nmol/24 hr)/ACTH Ratio Visit Values, Mean ± SD ([4]; Day 70, Non-Hypokalemic (N 30)): 17.0 ± 32.7 (30)
24 Hour Urine Cortisol (nmol/24 hr)/ACTH Ratio Visit Values, Mean ± SD ([4]; Day 112, Non-Hypokalemic (N 23)): 9.6 ± 16.3 (23)
ratios of 24-hour urine cortisol values divided by ACTH values ([4]; patients experiencing hypokalemia): greater than 20
ratios of 24-hour urine cortisol values divided by ACTH values [4, 10]: less than 20
24 hour urine cortisol levels ([4]; patients who did not experience hypokalemia, at all times during mifepristone treatment): below 1700 nmol/24 hr
24-hour urine cortisol levels ([4]; patients who experienced hypokalemia): above 2000 nmol/24 hr
change in 24-hour urine cortisol levels as compared to baseline ([4]; patients who experienced hypokalemia, day 42): greater than 600 nmol/24 hr
change of ACTH during mifepristone treatment [5, 11]: increased about two-fold
Ratio of ACTH Visit Change Values from Baseline per Baseline (ACTH_CHG/ACTH Baseline), Mean ± SD ([5]; Day 42, Hypokalemic (N 6)): 2.50 ± 0.61 (6)
Ratio of ACTH Visit Change Values from Baseline per Baseline (ACTH_CHG/ACTH Baseline), Mean ± SD ([5]; Day 168, Hypokalemic (N 5)): 3.30 ± 2.54 (5)
rise of ACTH levels following an initial increase in mifepristone dose (FIG. 1) [5, 10]: about 25 pg/mL
change of serum cortisol during mifepristone treatment [6, 11]: increased to a smaller degree
total serum cortisol levels ([6]; patients who did not experience hypokalemia, early on during mifepristone treatment (e.g., day 14 and/or day 42)): below 1000 nmol/L
total serum cortisol levels ([6]; patients who experienced hypokalemia, early on during mifepristone treatment (e.g., day 14 and day 42)): above 1000 nmol/L
frequently reported adverse events ([7]; mifepristone administered to healthy volunteers): headache, gastrointestinal symptoms including diarrhea, nausea and vomiting, and rash
Hypokalemia and rash compared with the control groups ([7]; subjects receiving mifepristone): more common
